Results taken from PMC11524583, “Neurons enhance blood–brain barrier function via upregulating claudin-5 and VE-cadherin expression due to glial cell line-derived neurotrophic factor secretion” (eLife, 2024).
Where two headings read alike, the source gives them in different places. Marks after values point to notes of the source that are not given here.

Assays:
claudin-5 = assay: Western blot of claudin-5 expression in hCMEC/D3 cells; assay type: cell-based, Homo sapiens; conditions: hCMEC/D3 cells, 200 pg/ml GDNF; 3 μM SPP-86, 5 μM PP2, 3 μM LY294002, 2 μM U0126, 5 μM SP600125, 2 μM SB203580; anti-GDNF antibody 0.25, 0.5, 1.0 μg/ml
Procedure: (§1) Whole-cell and tissue lysates, nucleoprotein, and cytoplasmic protein were prepared using RIPA Lysis Buffer (Beyotime, Shanghai, China) as the described method ([Wu et al., 2021]). Proteins were separated through sodium dodecyl sulfate–polyacrylamide gel electrophoresis and transferred onto nitrocellulose or polyvinylidene difluoride membranes. The membranes were blocked with 5% skim milk and incubated with corresponding primary antibodies at 4°C overnight. After being washed with Tris-buffered saline Tween buffer, the membranes were incubated with secondary antibodies (Cell Signaling Technology, MA, USA) at 1:3000 dilution: Anti-mouse IgG, HRP-linked Antibody (#7076), Anti-rabbit IgG, HRP-linked Antibody (#7074). Protein levels were visualized using a highly sensitive ECL western blotting substrate and a gel imaging system (Tanon Science & Technology, Shanghai, China).
(§2) CM of U251 cells (U-CM), SH-SY5Y cells (S-CM), or co-culture of U251 and SH-SY5Y cells (US-CM) was prepared. U251 cells were seeded at the top of the insert membrane and suspended on 6-well plates seeded with differentiated SH-SY5Y cells to co-culture U251 cells with SH-SY5Y cells. The medium was collected every 24 hr. The CMs were subsequently used for hCMEC/D3 cell culture after filtrating with 0.2 μm filters for 144 hr. The levels of GDNF, bFGF, IGF-1, and TGF-β in CMs were measured using corresponding ELISA kits according to the manufacturers’ instructions.
(§3) Exogenous and endogenous GDNF in the medium was neutralized with anti-GDNF antibody (#AF-212-NA, R&D system, Minneapolis, MN, USA). 0.25, 0.5, and 1.0 μg/ml anti-GDNF antibody was added into the US-CM or medium containing 200 pg/ml GDNF, and then the medium was preincubated at 4°C for 1 hr. The hCMEC/D3 cells were incubated with 200 pg/ml GDNF or US-CM containing anti-GDNF antibody or not for 6 days, and then cell lysate was collected for western blot. The medium was replaced every 24 hr.
(§4) Here, hCMEC/D3 cells were plated in the plates or culture dishes at 6 × 10^4 cells/cm^2 and transfected with 10 nM of negative control or human FOXO1, ETS1, and CDH5 siRNA (Tsingke Biotechnology, Beijing, China) for 12 hr using Lipofectamine 3000 (Invitrogen, Carlsbad, CA, USA) reagent according to the manufacturer’s instructions. Cells were then incubated with a medium containing GDNF for 72 hr.
The plasmids encoding FOXO1 (EX-Z7404-M02) were constructed by GeneCopoeia (Rockville, MD, USA). The hCMEC/D3 cells were plated in plates or dishes at 6 × 10^4 cells/cm^2. They were subsequently transfected with 1 µg of negative control or plasmids encoding FOXO1 6 hr using Lipofectamine 3000 reagent according to the manufacturer’s instructions. Transfected cells were then incubated with the medium containing GDNF for 72 hr.

VE-cadherin = assay: Western blot of VE-cadherin expression in hCMEC/D3 cells; assay type: cell-based, Homo sapiens; conditions: hCMEC/D3 cells, 200 pg/ml GDNF; 3 μM SPP-86, 5 μM PP2, 3 μM LY294002, 2 μM U0126, 5 μM SP600125, 2 μM SB203580; anti-GDNF antibody 0.25, 0.5, 1.0 μg/ml
Procedure: as §1, §2, §3, §4

[1] = unbound fraction in brain, cited from earlier work
[2] = tested on: hCMEC/D3 mono-culture BBB model; conditions: human
in vitro [3] = conditions: human
in vitro [4] = conditions: human; remark: listed apart in the source
[5] = in situ brain perfusion in rodents, published permeability multiplied by VSA 150 cm^2/g, cited from earlier work
[6] = tested on: triple co-culture BBB model (hCMEC/D3, U251 and SH-SY5Y cells); assay: In vitro BBB permeability study (Papp), triple co-culture BBB model; conditions: Triple co-culture BBB model; PS worked out from mean Papp
[7] = tested on: hCMEC/D3 mono-culture BBB model; assay: In vitro BBB permeability study (Papp), hCMEC/D3 mono-culture BBB model; conditions: Mono-culture BBB Model; PS worked out from mean Papp
[8] = Papp, Triple, apical to basolateral, 30 min, 37°C, day 6, mean ± SEM, four biological replicates

Compound: Oc1c2ccccc2c2c3c(cccc13)N=N2 [SP600125, reference compound]
- GDNF-induced claudin-5 expression (claudin-5): almost no effect
- GDNF-induced VE-cadherin expression (VE-cadherin): almost no effect

Compound: CNCCC(Oc1ccc(C(F)(F)F)cc1)c1ccccc1 (stereo not shown) [Fluoxetine]
- fu, brain ([1]; ref Liu et al., 2005): 0.00094
- fu, brain ([1]; ref Maurer et al., 2005): 0.0023
- fu, brain ([1]; ref Summerfield et al., 2007): 0.004^†

Compound: Cc1ncc2n1-c1ccc(Cl)cc1C(c1ccccc1F)=NC2 [Midazolam]
- PSPre, Mono [2]: 5060.00 µL/min/g
- Papp A→B (in vitro [3]; Papp, Mono, apical to basolateral, 30 min, 37°C, day 6, mean ± SEM, four biological replicates): 25.3 ± 1 ×10⁻⁶ cm/s
- Papp A→B (in vitro [4]; Papp Mean, Triple co-culture BBB model, mean of 4 replicates): 19.1 ×10⁻⁶ cm/s
- Papp A→B (in vitro [4]; [8]): 19.1 ± 0.24 ×10⁻⁶ cm/s
- fu, brain ([1]; ref Kodaira et al., 2011): 0.045^‡ ‡
- PSObs ([5]; ref Summerfield et al., 2007): 2727.00^† μl/min/g
- PS [6]: 3818.00 µL/min/g
- PS [7]: 5060.00 µL/min/g

Compound: NCC1(CC(=O)O)CCCCC1 [Gabapentin]
- PSPre, Mono [2]: 192.77 µL/min/g
- Papp A→B (in vitro [3]; Papp Mean, Mono-culture BBB Model, mean of 4 replicates): 16.7 ×10⁻⁶ cm/s
- Papp A→B (in vitro [4]; [8]): 8.78 ± 0.23 ×10⁻⁶ cm/s
- fu, brain ([1]; ref Summerfield et al., 2007): 0.782^†
- PSObs ([5]; ref Summerfield et al., 2007): 162.90^† μl/min/g
- PS [6]: 101.05 µL/min/g
- PS [7]: 192.77 µL/min/g

Compound: C[S+]([O-])c1ccc(-c2nc(-c3ccncc3)c(-c3ccc(F)cc3)[nH]2)cc1 (stereo not shown) [SB203580, reference compound]
- GDNF-induced claudin-5 expression (claudin-5): almost no effect
- GDNF-induced VE-cadherin expression (VE-cadherin): almost no effect

Compound: COc1cc2nc(N3CCN(C(=O)c4ccco4)CC3)nc(N)c2cc1OC [Prazosin]
- Papp A→B at 30 min (in vitro [3]; Papp (individual replicate)): 4.56 ×10⁻⁶ cm/s
- PSObs ([5]; ref Di Marco et al., 2019): 169.20^¶ ¶ μl/min/g

Compound: Nc1nnc(-c2cccc(Cl)c2Cl)c(N)n1 [Lamotrigine]
- fu, brain ([1]; ref Summerfield et al., 2007): 0.273^†
